# Laboratory results reported in article PMC11729428, “New Potent Inhibitor of Transforming Growth Factor-Beta (TGFβ) Signaling that is Efficacious against Microsatellite Stable Colorectal Cancer Metastasis in Combination with Immune Checkpoint Therapy in Mice” (ACS Pharmacology & Translational Science, 2024).
# Like-named read-outs stand apart in the source and are kept apart here.
# Key:
# [1] = system: panel of 97 wild-type and disease-relevant mutant kinases; format: binding; settings: for Additional kinases showing >85% competitive binding: besides ALK5 and ALK4/ACVR1B
# Excerpt: We also assessed the selectivity of these three inhibitors toward a panel of 97 wild-type and disease-relevant mutant kinases, distributed throughout various kinase families.
# Figure 2 Selectivity of HYL001. […] TK: tyrosine kinases; TKL: tyrosine kinase-like kinases; STE: serine/threonine kinases; CK1: casein kinase 1 family; AGC: serine/threonine kinases, regulated by secondary messengers such as cyclic AMP (PKA) or lipids (PKC); CAMK: Ca^2+/calmodulin-dependent protein kinase family; and CMGC: primarily proline-directed serine/threonine kinases (CDKs, GSKs, MAP kinases, and CDK-like kinases).
# 5. Methods for In vitro characterizations of HYL001
# Kinase affinity and selectivity
# The affinity of the ALK5 inhibitor HYL001 was determined for the ALK kinase family using the […]
# DNA-tagged kinases and immobilized assay ligands, using quantitative PCR —run by Eurofins/DiscoveryX (Birmingham AL, USA). Dissociation constants were calculated by measuring the amount of kinase captured on the solid support as a function of the test compound concentration. Kd values were obtained by an 11 -point […]
# (BMPR1A), ALK4 (ACVR1B), ALK6 (BMPR1B), ACVR2B and TGFβ R2. In addition, this technology was […]
# The strength of competitive binding, defined as the percentage of binding inhibition of kinases to assay ligan d, was visualized using the TREEspot software (DiscoverRx Corporation) and a selectivity score was calculated (the fraction of non -mutated kinases tested with competitive binding inhibition above threshold percentages 65 […]
# TGFβ pathway = assay: Cellular TGFβ reporter (12xCAGA luciferase) assay in HEK293T cells; format: cell-based; settings: for IC50: Homo sapiens, HEK-293T, 5 ng/mL recombinant TGFβ, 12xCAGA luciferase reporter, read-out: cellular inhibition TGFβ pathway IC50
# Experimental: We next tested the three inhibitors in a cellular assay, using a luciferase-based reporter assay[20] in HEK293T cells in the presence or absence of inhibitors (Table 1). Upon activation of the endogenous receptors by 5 ng/mL recombinant TGFβ, phosphorylation of the TGFBR1 triggers phosphorylation of the intracellular mediators SMAD2/3, and subsequent nuclear translocation with SMAD4. The SMAD2/3-SMAD4 complex binds to the TGFβ response element (12xCAGA) allowing the transcription of the Firefly luciferase reporter.
# HEK293T cells were purchased from the ATCC and cultured in DMEM supplemented with L-glutamine and 10% fetal bovine serum (Life Technologies) at 37 °C and 5% CO2. The cells were seeded in 24-well plates and transfected with plasmids encoding 12xCAGA-Firefly_Luc and Tk-Renilla_Luc (75 and 10 ng per well, respectively) using polyethylenimine (Polysciences) as the transfection reagent. After 7 h, the medium was replaced with starvation medium (DMEM + 0.05% FBS). […] Bioluminescence was measured in a Berthold Lumat LB6507 luminometer (18 μL of reagents, 10 s measurements). Results were normalized to those of the Renilla transfection control. Inhibition–concentration curves were analyzed in Prism Graphpad Prism (v10.1.1) with a least-squares regression nonlinear fit.
# [2] = Metabolic stability in human cryopreserved hepatocytes; format: in vitro ADME
# Experimental: (§1) Metabolic stability in human primary hepatocytes
# This assay was performed at Sai Life Sciences Lt. (Telangana, India) with human suspension hepatocytes […]
# (§2) All other reactions were initiated by […]
# analysis by LC-MS/MS, using MRM mode. […]
# related to phase I and phase II metabolism, respectively.
# The PARs were used for calculation of metabolic stability. The 0 min area ratio was considered as 100%. The […]
# incubation volume / number of cells (in millions) x K e. To calculate into full body context, the values of 120 […]
# [3] = Buffer stability (hepatocyte assay control); format: physicochemical
# Experimental: Similarly, buffer was added to recovery and stability samples. Next,
# Samples were monitored for
# parent compound using multiple reaction monitoring (MRM) mode. […]
# as §1
# This assay was performed at Sai Life Sciences Lt. (Telangana, India) with human suspension hepatocytes
# as §2
# [4] = system: mouse tumor organoids (MTOs), established CRC liver metastases; assay: Treatment of established CRC liver metastases, alone or with anti-PD1; format: in vivo, mice; settings: for Cure of established liver metastases as monotherapy: 0.1× doses: 80, 82 and 71 mg/kg BID for galunisertib, vactosertib and HYL001, anti-PD1 IP alone
# Experimental: Encouraged by the increased potency observed in vitro and in the inhibition of liver metastatic initiation in vivo, we evaluated the ability of a relatively low HYL001 dose to help overcome established liver metastases when combined with immune checkpoint inhibition. In this experimental set up, a low number of MTO cells (25K) was injected in the portal vein (leaving the spleen unaltered), and liver metastases were allowed to develop and grow for 15 days before treatment with TGFβ inhibitors was initiated. This was done in combination with 3–4 intraperitoneal (IP) injections of immune-checkpoint inhibition therapy (anti-PD1 or isotype control antibody), spaced 2–3 days (Figure 6A,B).
# Figure 6 HYL001 efficacy in dual immunotherapy against established CRC liver metastases. (A) Overview of experimental timing: dual treatment between days 14 and 28 after MTO injection (TGFβ inhibitor doses were all 0.1 ×); follow-up until humane end point. Below: numbers of countable liver lesions after sacrifice. Statistical comparisons to the vehicle + IgG2a control (above) or the vehicle+αPD1 condition (below) by two-tailed Mann–Whitney U test; ns: P ≥ 0.05; *P < 0.05; **P < 0.01; ***P < 0.001; ****P < 0.0001. (B) Kaplan–Meier curves indicate the survival (until humane end point) of mice under each treatment; P values were computed by the Mantel–Cox test (Log-rank).
# For all tumor cell injections, C57BL/6J (or athymic BALB/C nu/nu) mice were purchased from Janvier at 6 weeks of age and injected at 7–8 weeks. Sex was matched with the origin of the tumor organoids, i.e., males for this study. Intrasplenic or portal vein injections, respectively, with 31G needles on 1 mL insulin syringes or 33G needles on a 50/100 μL Hamilton syringe, were used for liver colonization by the introduction of dissociated organoids (single cells) into the portal circulation. MTOs were cultured in standard six-well plates for 4 days and trypsinized as described before.[5] The resulting single cell suspension in HBSS (Lonza) was filtered through 100 and 40 μm mesh (to remove clumps of cells and aggregated debris). Intrasplenic injections were performed, as previously described,[5],[8],[9] using 2 × 10^5 cells in 70 μL HBSS. For portal vein injections, […] in 25 μL HBSS were injected directly into the portal vein.[5] Mice were euthanized at 3–5 weeks or at the humane end point (advanced metastasis-associated morbidity causing or threatening to cause severe suffering) to obtain survival-type data. Visible liver metastases were counted, and data were analyzed using GraphPad Prism software (v.7.03).
# Gavage treatments were performed by technicians from the animal facility, not involved in this study (blinded). For checkpoint immunotherapy or dual treatments, we used rat anti-PD-1 (RMP1–14; Leinco P372) or rat IgG2a (Leinco I-1177) isotype-control antibodies.
# [5] = 10 μM compound, 90 kinases tested
# [6] = human, hepatocytes, 0 h, pH 7.4
# [7] = human, hepatocytes, 5 min, pH 7.4
# [8] = human, hepatocytes, 0.25 h, pH 7.4
# [9] = human, hepatocytes, 0.5 h, pH 7.4
# [10] = human, hepatocytes, pH 7.4, Disappearance T1/2
SMILES,"Number of kinase interactions (>65% competitive binding inhibition) [1, 5]",Additional kinases showing >85% competitive binding [1],IC50 (TGFβ pathway) [µM],Cure of established liver metastases as monotherapy [4],"Parent compound remaining [2, 6] [%]","Parent compound remaining [2, 7] [%]","Parent compound remaining [2, 8] [%]","Parent compound remaining [2, 9] [%]","CLint scaled ([2]; human, hepatocytes, pH 7.4) [L/h/kg]","half-life [2, 10] [min]","Buffer Stability ([3]; 0 min, pH 7.4) [%]","Buffer Stability ([3]; 60 min, pH 7.4) [%]",further results
"Cc1cccc(-c2[nH]c(CNc3ccccc3F)nc2-c2ccc3ncnn3c2)n1 [vactosertib, N -((4-([1,2,4]Triazolo[1,5-a]Pyridin-6-Yl)-5-(6-Methylpyridin-2-Yl)-1 H -Imidazole-2-Yl)Methyl)-2-Fluoroaniline]",24,"ERBB2, FGFR2/3, KIT, MEK1/2, PDGFRA/B, SRC, and VEGFR2",0.01,not efficacious,,,,,,,,,"CLint scaled ([2]; hepatocytes (suspension, cryopreserved), pH 7.4, scaled using 120 M cells per g liver, liver weight 20 g/kg (human), read-out: Scaled in vivo Clint): 1.81 L/h/kg; Parent compound remaining ([2]; human hepatocytes, incubation time 0 min): 100%; Parent compound remaining ([2]; human hepatocytes, incubation time 5 min): 60%; Parent compound remaining ([2]; human hepatocytes, incubation time 15 min): 59%; Parent compound remaining ([2]; human hepatocytes, incubation time 30 min): 52%; Parent compound remaining ([2]; human hepatocytes, incubation time 60 min): < 50%; Parent compound remaining ([2]; human hepatocytes, incubation time 60 min, listed as Vactosertib): 39%; half-life ([2]; human, hepatocytes (suspension, cryopreserved), pH 7.4, human hepatocytes, read-out: Disappearance T1/2): 55.3 min; Buffer Stability ([3]; 0 min): 100%; Buffer Stability ([3]; 60 min): 84%"
"Cc1cccc(-c2nn3c(c2-c2ccnc4ccc(O)cc24)CCC3)n1 [HYL001, 4-(2-(6-Methylpyridin-2-yl)-5,6-dihydro-4H-pyrrolo[1,2-b]pyrazol-3-yl)quinolin-6-ol]",13,"ABL-1, CSNK1G2, and p38α",0.072,not efficacious,100,67,59,56,1.93,51.8,100,117,"Number of kinase interactions (>65% competitive binding inhibition) ([1]; 0.3 μM compound, 22 kinases tested): 1; Number of kinase interactions (>65% competitive binding inhibition) ([1]; 3 μM compound, 22 kinases tested): 5; Selectivity score S(>65_10), fraction of wildtype kinases inhibited >65% ([1]; 10 μM compound): 0.144; Selectivity score S(>90_10), fraction of wildtype kinases inhibited >90% ([1]; 10 μM compound): 0.1; Selectivity score S(>65_10), fraction of wildtype kinases inhibited >65% ([1]; 10 μM compound, listed as HYL): 0.14; Fold higher potency compared to galunisertib in TGFβ reporter assay (TGFβ pathway): ~2 fold; Tumor burden in numbers of liver nodules ([4]; dual therapy with anti-PD1): marked overall reduction; Mice cured at the end point (number) ([4]; dual therapy with anti-PD1, 71 mg/kg BID): 8/10; Mice cured at the end point ([4]; dual therapy with anti-PD1, 71 mg/kg BID, surviving 2.5 months after injection): up to 80%"
Cc1cccc(-c2nn3c(c2-c2ccnc4ccc(C(N)=O)cc24)CCC3)n1 [galunisertib],10,,0.157,not efficacious,100,97,92,90,0.624,> 60,100,105,"Parent compound remaining ([2]; human, hepatocytes, 1 h, pH 7.4): 76%; half-life ([2]; human, hepatocytes, pH 7.4, Assumed T1/2): 160 min"
